Test results as given in patent US20160136108A1, “HYDROXYTYROSOL COMPOSITIONS FOR TREATMENT OF CARTILAGE INJURIES IN JOINTS” (DSM IP ASSETS B.V., priority 2007, published 2016).

Experiments:
Format in all cases: cell-based
human aggrecan = test: Anabolic gene expression by quantitative real-time PCR in normal human primary chondrocytes: aggrecan
Procedure: (§1) […] These primary chondrocytes were passaged in vitro not more than 4 times, before being used for experiments. Cells were cultured in chondrocyte differentiation medium (Cambrex, #CC-3225) without or with substances for 4 hours. Total RNA was extracted from cultured cells and reverse-transcribed as described by Richard et al. Mol. Nutr. Food Res. 49, 431-442, 2005. Expression levels of distinct genes were determined by quantitative real-time PCR as detailed in Richard et al. Mol. Nutr. Food Res. 49, 431-442, 2005.

human COL2A1 = test: Anabolic gene expression by quantitative real-time PCR in normal human primary chondrocytes: COL2A1
Procedure: as §1

human SOX-5 = test: Anabolic gene expression by quantitative real-time PCR in normal human primary chondrocytes: SOX-5; conditions: normal human primary chondrocytes (HNAC-kn); 4 hours
Procedure: as §1

human SOX-6 = test: Anabolic gene expression by quantitative real-time PCR in normal human primary chondrocytes: SOX-6; conditions: normal human primary chondrocytes (HNAC-kn); 4 hours
Procedure: as §1

Human IL-R antagonist = test: Anti-catabolic gene expression by quantitative real-time PCR in normal human primary chondrocytes: IL-R antagonist; conditions: normal human primary chondrocytes (HNAC-kn); 4 hours
Procedure: as §1

[1] = 12.5 microM OH-Tyrosol, normal human primary chondrocytes (HNAC-kn), 4 hours
[2] = in words, normal human primary chondrocytes

OCCc1ccc(O)c(O)c1 [OH-Tyrosol, 4-(2-hydroxylethyl)-1,2-benzenediol]
level of gene expression, human aggrecan (human aggrecan; [1]): 125 % of control-treated cells
effect of compounds on gene expression, human aggrecan (human aggrecan; [2]): substantially increased
level of gene expression, human COL2A1 (human COL2A1; [1]): 247 % of control-treated cells
effect of compounds on gene expression, human COL2A1 (collagen II) (human COL2A1; [2]): substantially increased
level of gene expression, human SOX-5 (human SOX-5): 130 % of control-treated cells
level of gene expression, human SOX-6 (human SOX-6): 127 % of control-treated cells
level of gene expression, Human IL-R antagonist (Human IL-R antagonist): 113 % of control-treated cells
